Earlier results in patent US20220387349A1, “TREATMENT OF CUTANEOUS ADVERSE EFFECTS CAUSED BY ONCOLOGICAL THERAPY WITH TOPICAL TAPINAROF COMPOSITIONS” (Sol-Gel Technologies Ltd, priority 2019, published 2022).
Like-named read-outs stand apart in the source and are kept apart here.

Legend:
[1] = test system: interleukin-6 and interleukin-17A; details: mouse models
[2] = psoriasis treatment, as a single drug; placebo 20.2%
[3] = test system: interleukin-6 and interleukin-17A; details: in vitro human skin studies
[4] = 1% tapinarof arm compared with the 0.5% arm or vehicle

**Q.** With CC(C)c1c(O)cc(/C=C/c2ccccc2)cc1O [Tapinarof, 3,5-dihydroxy-4-isopropyl-trans-stilbene] as the molecule, how does the “effect on skin barrier function” value [1] read?
**A.** enhance skin barrier function

**Q.** What about the “effect on specific proinflammatory mediators, including interleukin-6 and interleukin-17A” value [1] of the same molecule?
**A.** inhibit specific proinflammatory mediators

**Q.** What about the efficacy [4] of the same molecule?
**A.** higher efficacy

**Q.** And the onset of action [4]?
**A.** quicker onset of action

**Q.** What about the “most frequent adverse events” value (topical tapinarof) of the same molecule?
**A.** folliculitis and contact dermatitis

**Q.** What about the “side-effects at higher concentrations” value (topical, higher than 1% w/w tapinarof) of the same molecule?
**A.** undesirable side-effects

**Q.** What about the adverse effects [2] of the same molecule?
**A.** 44.5%

**Q.** And the “effect on skin barrier function” value [3]?
**A.** enhance skin barrier function

**Q.** And the “effect on specific proinflammatory mediators, including interleukin-6 and interleukin-17A” value [3]?
**A.** inhibit specific proinflammatory mediators

**Q.** With C=C1/C(=C\C=C2/CCC[C@]3(C)[C@@H]([C@H](C)/C=C/[C@@H](O)C4CC4)CC[C@@H]23)C[C@@H](O)C[C@@H]1O [calcipotriene] as the molecule, how does the adverse effects [2] read?
**A.** 19.5%
